Patent US10456434B2, “Extracts obtained from cell line cultures from plants belonging to the Oleaceae family (e.g. Syringa vulgaris), their preparation and use” (CRODA ITALIANA S. P. A., priority 2005, dated 2019)

What was measured:
[1] = Hydroxyl radical scavenger activity (Fenton reaction, luminol chemiluminescence); type: biochemical; details: mean of 6 independent assays
From the text: Syringa vulgaris Extracts 1 and 2, prepared as described in examples 1 and 2, have been used to assess in vitro antioxidant action with specific oxygen radical generating systems such as the superoxide anion (O2^−), the hydroxyl radical (HO), the peroxynitrite radical (ONOO^−) and the inhibition of lipid peroxidation. The superoxide anion has been measured by a chemiluminescent assay based on the hypoxanthine (HPX)/xanthine oxidase (XOD) reaction using the Lumimax Superoxide Anion Detection Kit (Stratagene, La Jolla, Calif., USA) and following the manufacturer's instructions. Hydroxyl radical scavenger activity has been measured by means of the Fenton reaction for the production of hydroxyl radicals and chemiluminescent dosage (using a Victor^3 chemiluminometer, Wallac, Finland) with luminol. Peroxynitrite ions have been determined by means of dosage with a spontaneous generator of peroxynitrites (3-morpholinosidnonimine hydrochloride; SIN-1) and a stable reagent for the nitroxyl ions (2-(4-carboxyphenyl)-4,4,5,5-tetramethylimidazoline-1-oxyl-3-oxide potassium salt PTIO spin trap) then dosed by means of electron spin resonance (ESR) using a. Nippon Denshi JES-FR30. […].
Extract 1 and Extract 2 listed in Table are derived from Syringa vulgaris cell cultures. In said extracts, verbascoside is present at 0.82% and 35% by weight respectively. […]

[2] = Peroxynitrite assay (SIN-1, PTIO spin trap, ESR); type: biochemical; details: mean of 6 independent assays
From the text: (§1) The superoxide anion has been measured by a chemiluminescent assay based on the hypoxanthine (HPX)/xanthine oxidase (XOD) reaction using the Lumimax Superoxide Anion Detection Kit (Stratagene, La Jolla, Calif., USA) and following the manufacturer's instructions. Hydroxyl radical scavenger activity has been measured by means of the Fenton reaction for the production of hydroxyl radicals and chemiluminescent dosage (using a Victor^3 chemiluminometer, Wallac, Finland) with luminol. Peroxynitrite ions have been determined by means of dosage with a spontaneous generator of peroxynitrites (3-morpholinosidnonimine hydrochloride; SIN-1) and a stable reagent for the nitroxyl ions (2-(4-carboxyphenyl)-4,4,5,5-tetramethylimidazoline-1-oxyl-3-oxide potassium salt PTIO spin trap) then dosed by means of electron spin resonance (ESR) using a. Nippon Denshi JES-FR30.
(§2) Extract 1 and Extract 2 listed in Table are derived from Syringa vulgaris cell cultures. […] The results are expressed as the concentration inhibiting 50% of activity (IC50). The values reported are the means of 6 independent assays.

[3] = Superoxide anion chemiluminescent assay (hypoxanthine/xanthine oxidase); type: biochemical; details: mean of 6 independent assays
From the text: as §1, §2

[4] = system: A549 cells; test: Oxidative stress (ROS, DCF fluorescence) in A549 cell cultures; type: cell-based, human; details: 1 mM, A549, galactose oxidative stress
Protocol: 10×10^5 A549 cells (ATCC-CCL195) have been seeded into wells with 3 ml of DMEM/medium (HAM'S F12K) with 10% FCS and incubated at 37° C. in a 5% CO2, water vapour saturated atmosphere. After 24 hours the culture medium is replaced by medium supplemented with 5.55 mM galactose, which is left in contact with the cells for 20 hours. The medium is once again replaced with medium containing galactose in the presence or absence of the test compound. After 5 hours, quantitative measurement of the ROSs is performed by washing the cells with phosphate buffer and then incubating them with 30 μM DCF-DA in buffer solution. At the end of a 15 minute incubation, excess DCF-DA is removed from the cells by washing, prior to measuring the fluorescence emitted.
Antioxidant activity measurements are performed using a (Hitachi F3010) spectrophotometer with excitation at 488 nm and measuring emission at 525 nm, and values are expressed in pmoles, by extrapolation from the calibration curve constructed using known quantities of DCF, in relation to total cellular protein. Values are thus expressed in % ages with respect to the ROS, content of the cells not subjected to oxidative stress, to which are assigned a value of 100.
Syringa vulgaris Extracts 1 and 2 and ascorbic acid have been dissolved in phosphate buffer.

[5] = system: tyrosinase; test: Tyrosinase inhibition, conversion of L-DOPA to DOPAquinone; type: biochemical, Mushroom; details: 100 μg/ml
From the text: (§3) The enzyme tyrosinase catalyses the reactions leading to melanin biosynthesis from tyrosine. […] Substances inhibiting tyrosinase activity produce clearing/bleaching effect on the skin, since they block melanin synthesis. The method used to determine the inhibition of tyrosinase activity in the oxidation reaction of L-tyrosine to L-DOPA is that described in Kim et al. […] Biol. Pharm. Bull. 28(2), 323-327, 2005). The method applied for determination of the inhibition of tyrosinase activity in the conversion of L-DOPA to DOPAquinone is that described in Masamoto et al. (Mushroom tyrosinase inhibitory activity of esculetin isolated from seeds of Euphorbia lathyris L. Biosci. Biotechnol. Biochem., 67(3), 631-634, 2003).

[6] = system: tyrosinase; test: Tyrosinase inhibition, oxidation of L-tyrosine to L-DOPA; type: biochemical; details: 250 μg/ml
From the text: as §3

Structure (SMILES)	Test LDOPA-DOPAquinone inhibitory activity (%) [5] [%]	Test L-tyrosine-DOPA inhibitory activity (%) [6] [%]	other results
O=C1c2c(O)cccc2C([C@@H]2O[C@H](CO)[C@@H](O)[C@H](O)[C@H]2O)c2cc(CO)cc(O)c21 (some centres unmarked) [Aloin, reference compound]	–	–	Hydroxyl radial (IC50) [1]: 2.9 µg/mL; Peroxynitrite radical (IC50) [2]: 12.3 µg/mL; Superoxide radical (IC50) [3]: 7.6 µg/mL
O=C1O[C@H]([C@@H](O)CO)C(O)=C1O [Ascorbic acid, reference compound]	–	–	ROS level (%) [4]: 62.91 ± 3.82 %
O=c1cc(CO)occ1O [Kojic acid, reference compound]	35	94.1	–
Oc1cccc(O)c1 [Resorcinol, reference compound]	0	56.9	–
